Test results reported in paper PMC11783601, “Analogue-Sensitive Inhibition of Histone Demethylases Uncovers Member-Specific Function in Ribosomal Protein Synthesis” (Journal of the American Chemical Society, 2025).

Key:
[1] = test system: nascent protein synthesis in HEK293T cells; test: BONCAT: confocal imaging of TAMRA alkyne ligated nascent proteins in fixed cells; format: cell-based, human
Protocol: To visualize the nascent proteins in intact cells, we performed click ligation on fixed cells with TAMRA alkyne, followed by confocal imaging. Treatment with AHA led to a robust fluorescence signal primarily in the cytoplasm compared to untreated cells indicating cytoplasmic protein synthesis (Figure 5D,E). […]
and 6 ug of Thermo Turbofect (FERR0531). KDM4A siRNA was transfected into cells using 10nM siRNA (Thermo 4392420) with 1:2 ug amount of Thermo Turbofect (FERR0531). Cells were washed 4 hours later and fresh DMEM was applied. The next day, the cells were treated with inhibitor (L-leucine NOG) and grown for 24 hours. […] The lysate was quantified with Bradford dye and 40 ug of lysate was incubated with 1 mM Tris[(1-benzyl-1H-1,2,3-triazol-4-yl)methyl]amine (TBTA […]
For analysis of AHA incorporation measured by fixed cell imaging, HEK293-T cells (ATCC CRL-1573) were grown in a 24 well plate (Corning) on poly-D-lysine (Gibco A3890401) treated glass coverslips (ThermoScientific 12-545-81P) overnight and transfected the next day with 500 ng KDM4A WT/F185A or Empty Vector (EV) equivalent using 1:2 ug of Thermo Turbofect (FERR0531). […]
(Sigma B2883-25MG) for 30 seconds, washed with PBS and finally adhered to a slide with gelvatol. […] Images were analyzed on ImageJ open-source software and NIS elements software. […]

[2] = test system: HEK293T cells; test: MTT assay; format: cell-based, human; settings: near millimolar concentrations (100 to 800 µM, 24 hours)
Text: We next examined the orthogonal pairs for their ability to modulate lysine demethylation on the chromosomal histone in cultured human cells (Figure 4A). To this end, we generated the F185A mutation in full-length KDM4A carrying all of the functional domains. Furthermore, to enhance cell permeability, we synthesized two chemoselective ester prodrugs 6A and 6B carrying either an n-octyl or a trifluoromethyl benzyl ester as the lipophilic moiety, respectively (Figures 4A, S5, and S6, Scheme S3).[46],[47] We confirmed the cell permeability of 6A and 6B and their subsequent hydrolysis to 6 by analyzing extracts of compound-treated HEK293T cells using LC-HRMS. […]
12. Examining cell permeability and toxicity of 6A and 6B
In a T-25 cell culture flask, HEK293T cells were treated with either 200 µM L-Leu octyl-ester NOG 6A, L-Leu TFMB-ester NOG 6B, or corresponding volume of DMSO. Following 24 hours of incubation at 37 °C, media was removed and 3mL of 80:20 methanol: water was added while the flasks with cells were on dry ice. The flasks were then incubated in -80 °C for 10 minutes to allow cell lysis. […]
To assess the toxicity of 6A/B on HEK 293-T cells (ATCC CRL-1573) were counted, and 5,000 cells were plated into a 96 well cell culture plate (Corning) for n=5 of each treatment. […] Absorbance at 570nm was quantified via TECAN Infinite […]

Compound | TAMRA signal of nascent proteins (confocal imaging) ([1]; fixed HEK293T cells, endogenous KDM4A, compared with KDM4A silencing) | cytotoxicity [2] | TAMRA signal of nascent proteins (confocal imaging) ([1]; fixed HEK293T cells overexpressing F185A, to the level of cells expressing control vector)
CCCCCCCCOC(=O)c1ccc(O)c2ncccc12 [n-octyl IOX1] | phenocopied |  | 
CCCCCCCCOC(=O)C(=O)NC(CC(C)C)C(=O)O [6A, L-Leu octyl-ester NOG] |  | marginal cytotoxicity | subsequently inhibited
CC(C)CC(NC(=O)C(=O)OCc1cccc(C(F)(F)F)c1)C(=O)O [6B, L-Leu TFMB-ester NOG] |  | marginal cytotoxicity | 
